According to publication PMC3758111 (Planta medica, 2013):
Read-outs that look alike come from different tables or passages of the source.

Columns and labels:
[1] = incubation with NADPH and human liver microsomes; cited from earlier work
[2] = rats, oral, as pure compound or in E. purpurea root extract; cited from earlier work
[3] = 3 h after oral 60% ethanolic extract of E. angustifolia containing 0.4–2 mg of Bauer alkamide 8 and 10; cited from earlier work
Caco-2 cells [4] = experiment: Glucuronidation by Caco-2 cells; settings: for Compartments in which glucuronide metabolites were found: pure compound, 25 μM applied apically
[5] = test system: prostaglandin E (2) production in lipopolysaccharide-stimulated RAW264.7 macrophages; settings: cited from earlier work
[6] = target: P-glycoprotein transporter (P-gp) (Homo sapiens, UniProt P08183); experiment: P-gp assay: calcein-AM efflux in Caco-2 cells; assay type: cell-based; settings: for Concentration that significantly inhibited P-gp activity: single compounds, calcein-AM, Caco-2, p < 0.05
Sequence of P-glycoprotein transporter (P-gp) (P08183 whole entry): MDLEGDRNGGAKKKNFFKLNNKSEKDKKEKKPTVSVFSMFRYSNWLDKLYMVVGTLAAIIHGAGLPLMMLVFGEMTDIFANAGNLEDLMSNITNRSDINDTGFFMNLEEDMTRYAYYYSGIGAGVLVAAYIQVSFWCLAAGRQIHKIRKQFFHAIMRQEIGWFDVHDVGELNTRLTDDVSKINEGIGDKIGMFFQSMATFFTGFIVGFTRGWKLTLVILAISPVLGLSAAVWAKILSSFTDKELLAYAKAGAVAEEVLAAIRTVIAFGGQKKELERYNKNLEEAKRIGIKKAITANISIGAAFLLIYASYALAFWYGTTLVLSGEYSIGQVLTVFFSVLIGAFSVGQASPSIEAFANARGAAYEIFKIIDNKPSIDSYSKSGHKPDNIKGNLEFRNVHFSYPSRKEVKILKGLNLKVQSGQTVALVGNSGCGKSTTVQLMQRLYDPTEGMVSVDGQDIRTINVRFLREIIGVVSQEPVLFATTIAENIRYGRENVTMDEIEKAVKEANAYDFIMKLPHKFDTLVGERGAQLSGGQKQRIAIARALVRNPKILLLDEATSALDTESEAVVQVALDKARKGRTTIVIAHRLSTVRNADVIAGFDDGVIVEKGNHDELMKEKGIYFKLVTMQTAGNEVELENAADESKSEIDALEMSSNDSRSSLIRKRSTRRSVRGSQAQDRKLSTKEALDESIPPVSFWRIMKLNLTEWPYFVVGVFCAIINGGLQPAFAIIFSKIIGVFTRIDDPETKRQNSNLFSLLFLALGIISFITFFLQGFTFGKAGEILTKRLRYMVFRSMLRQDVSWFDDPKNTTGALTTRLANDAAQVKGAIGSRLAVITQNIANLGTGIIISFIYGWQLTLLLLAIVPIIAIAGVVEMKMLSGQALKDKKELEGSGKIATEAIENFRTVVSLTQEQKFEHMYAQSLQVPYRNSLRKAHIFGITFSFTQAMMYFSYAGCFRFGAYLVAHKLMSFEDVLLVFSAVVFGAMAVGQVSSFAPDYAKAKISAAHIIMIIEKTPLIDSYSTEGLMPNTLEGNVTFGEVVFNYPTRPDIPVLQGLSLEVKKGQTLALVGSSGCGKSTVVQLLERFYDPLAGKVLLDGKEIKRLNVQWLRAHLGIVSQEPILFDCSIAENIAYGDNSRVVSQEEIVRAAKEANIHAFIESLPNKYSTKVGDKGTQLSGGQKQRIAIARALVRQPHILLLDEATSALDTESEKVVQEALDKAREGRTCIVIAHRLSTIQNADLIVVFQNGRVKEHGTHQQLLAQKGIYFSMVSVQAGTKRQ

[7] = Transepithelial transfer across Caco-2 cell monolayers; assay type: in vitro ADME, human; settings: human
Caco-2 cell monolayers = experiment: as above; assay type: in vitro ADME, human; settings: for Concentration dependency of uptake / Permeation rates at 37 °C compared with 4 °C: pure compounds; for Permeation rates at 37 °C compared with 4 °C: AP-BL
[8] = test system: nitric oxide production in lipopolysaccharide-stimulated RAW264.7 macrophages; settings: cited from earlier work
Caco-2 cells [9] = experiment: Cytotoxicity of pure compounds and extracts to Caco-2 cells; assay type: cell-based, human; settings: vs control 0.3% v/v DMSO in DMEM, p < 0.05; tested 10–1000 μM
Caco-2 monolayers = settings: extracted and isolated from E. pallida roots; cited from earlier work
[10] = 100 μM, 72 h, 37°C, RPMI 1640 medium; cited from earlier work
[11] = test system: multidrug transporter P-glycoprotein (P-gp); settings: isolated from E. pallida; human proximal tubular kidney cells; cited from earlier work
[12] = Caco-2, pH 7.4, Papp, After, single compound, 10–100 μM, subsequent to deconjugation with β-glucuronidase, n=9
[13] = Caco-2, pH 7.4, Papp, Before, single compound, 10–100 μM, prior to deconjugation with β-glucuronidase, n=9

Structure (SMILES)	Fraction of the ingested dose found in human blood [3]	Compartments in which glucuronide metabolites were found (Caco-2 cells [4])	Prostaglandin E (2) production ([5]; 50 μM)	Concentration that significantly inhibited P-gp activity [6] [µM]	Papp at 90 min [7, 12] [×10⁻⁶ cm/s]	Papp at 90 min [7, 13] [×10⁻⁶ cm/s]	Concentration dependency of uptake (Caco-2 cell monolayers; 10–100 μM)	Permeation rates at 37 °C compared with 4 °C (Caco-2 cell monolayers)	Nitric oxide production ([8]; 50 μM)	Concentrations significantly cytotoxic to Caco-2 cells (Caco-2 cells [9]) [µM]	further results
C/C=C\C=C/CC/C=C/C=C/C(=O)NCC(C)C [Bauer alkamide 8, (2E,4E,8Z,10Z)-N-isobutyldodeca-2,4,8,10-tetraenamide]	about 5%	only in the apical side	significantly decrease	175	39.8 ± 13.4	43.8 ± 11.2	increased linearly and exhibited non-saturable transport	No significant differences	significantly decrease	> 350	Metabolites formed [1]: Monohydroxylated, monoepoxidized, and N-dealkylated metabolites; Glucuronide or sulfate metabolite in urine [2]: no glucuronide or sulfate metabolite was present; Papp of Bauer alkamide 8 relative to Bauer alkamide 10 (Caco-2 cell monolayers; Table 2): ~ 2.5 ×; Papp of Bauer alkamide 8 relative to Bauer alkamide 11 (Caco-2 cell monolayers; Table 2): ~ 15 ×
CCCCCCC/C=C/C=C/C(=O)NCC(C)C [Bauer alkamide 11, (2E,4E)-N-isobutyldodeca-2,4-dienamide]		in the basolateral side and cell lysates	significantly decrease	230		2.8 ± 1.5	increased linearly and exhibited non-saturable transport	No significant differences	significantly decrease	> 460	
C/C=C\C#CC/C=C\CCCCCC(C)=O [Bauer ketone 24, pentadeca-(8Z, 13Z)-diene-11-yn-2-one]										> 990	Apparent permeability (Caco-2 monolayers): 10 ± 3 cm/s ×10^−6; Hydroperoxide intermediate formation, of the parent compound [10]: about 25%; Metabolism when incubated with Bauer alkamides 8, 10 and 11 (Caco-2 cells [4]; 10–100 μM, data not shown): totally metabolized; Metabolism when administered as a single compound (Caco-2 cells [4]; Caco-2 cells): totally metabolized to more hydrophilic metabolites; Recovery relative to applied amount after β-glucuronidase treatment (Caco-2 cells [4]; contained in E. sanguinea and E. pallida extracts, basolaterally and in cell lysates): significantly increased; Concentrations inhibiting P-gp [11]: 3 to 200 µg/mL; Prostaglandin E (2) production ([5]; 5 μM): significantly decrease; Effect on P-gp activity ([6]; single compound, tested concentrations 1–250 μM): not active; Papp at 90 min ([7]; Caco-2, pH 7.4, Papp from E. sanguinea or E. pallida extracts): 12 to 17 ×10⁻⁶ cm/s; Detection of parent compound apically, basolaterally or in cell lysates (Caco-2 cell monolayers; applied as pure compound, 10–100 μM, any time point 15–90 min): not found; Recovered in the basolateral side (Caco-2 cell monolayers; compound as contained in the two Echinacea species extracts): About 5%; Nitric oxide production ([8]; 5 μM): significantly decrease
CCC/C=C\CC/C=C/C=C/C(=O)NCC(C)C [Bauer alkamide 10, (2E,4E,8Z)-N-isobutyldodeca-2,4,8-trienamide]	~1%	in the apical side and cell lysates		205	18.3 ± 5.9	17.7 ± 8.8	increased linearly and exhibited non-saturable transport	No significant differences			
